Reference: ChEMBL document CHEMBL5038625, “Application of the dual-tail approach for the design and synthesis of novel Thiopyrimidine-Benzenesulfonamide hybrids as selective carbonic anhydrase inhibitors” (Eur J Med Chem, 2022)
Each block holds one compound with its values, some of them ahead of it.

Key:
NCI-H226 = assay: Antiproliferative activity against human NCI-H226 cells assessed as cell growth inhibition at 10 uM incubated for 24 hrs by sulforhodamine B assay; format: functional; details: read-out: GI
MCF7 = assay: Antiproliferative activity against human MCF7 cells assessed as cell growth inhibition at 10 uM incubated for 24 hrs by sulforhodamine B assay; format: functional; details: read-out: GI
CAKI-1 = assay: Antiproliferative activity against human CAKI-1 cells assessed as cell growth inhibition at 10 uM incubated for 24 hrs by sulforhodamine B assay; format: functional; details: read-out: GI
UO-31 = assay: Antiproliferative activity against human UO-31 cells assessed as cell growth inhibition at 10 uM incubated for 24 hrs by sulforhodamine B assay; format: functional; details: read-out: GI
HOP-92 = assay: Antiproliferative activity against human HOP-92 cells assessed as cell growth inhibition at 10 uM incubated for 24 hrs by sulforhodamine B assay; format: functional; details: read-out: GI
Carbonic anhydrase 9 = Carbonic anhydrase 9 (Homo sapiens, UniProt Q16790); assay: Inhibition of human CA9 preincubated for 15 mins by phenol red dye based stopped flow CO2 hydration assay
UACC-62 = assay: Antiproliferative activity against human UACC-62 cells assessed as cell growth inhibition at 10 uM incubated for 24 hrs by sulforhodamine B assay; format: functional; details: read-out: GI
OVCAR-3 = assay: Antiproliferative activity against human OVCAR-3 cells assessed as cell growth inhibition at 10 uM incubated for 24 hrs by sulforhodamine B assay; format: functional; details: read-out: GI
NCI-H23 = assay: Antiproliferative activity against human NCI-H23 cells assessed as cell growth inhibition at 10 uM incubated for 24 hrs by sulforhodamine B assay; format: functional; details: read-out: GI
SF-539 = assay: Antiproliferative activity against human SF-539 cells assessed as cell growth inhibition at 10 uM incubated for 24 hrs by sulforhodamine B assay; format: functional; details: read-out: GI
RXF 393 = assay: Antiproliferative activity against human RXF 393 cells assessed as cell growth inhibition at 10 uM incubated for 24 hrs by sulforhodamine B assay; format: functional; details: read-out: GI
M14 = assay: Antiproliferative activity against human M14 cells assessed as cell growth inhibition at 10 uM incubated for 24 hrs by sulforhodamine B assay; format: functional; details: read-out: GI
MDA-MB-468 = assay: Antiproliferative activity against human MDA-MB-468 cells assessed as cell growth inhibition at 10 uM incubated for 24 hrs by sulforhodamine B assay; format: functional; details: read-out: GI
SN12C = assay: Antiproliferative activity against human SN12C cells assessed as cell growth inhibition at 10 uM incubated for 24 hrs by sulforhodamine B assay; format: functional; details: read-out: GI
T47D = assay: Antiproliferative activity against human T47D cells assessed as cell growth inhibition at 10 uM incubated for 24 hrs by sulforhodamine B assay; format: functional; details: read-out: GI
NCI/ADR-RES = assay: Antiproliferative activity against human NCI-ADR-RES cells assessed as cell growth inhibition at 10 uM incubated for 24 hrs by sulforhodamine B assay; format: functional; details: read-out: GI
CCRF-CEM = assay: Antiproliferative activity against human CCRF-CEM cells assessed as cell growth inhibition at 10 uM incubated for 24 hrs by sulforhodamine B assay; format: functional; details: read-out: GI
NCI-H460 = assay: Antiproliferative activity against human NCI-H460 cells assessed as cell growth inhibition at 10 uM incubated for 24 hrs by sulforhodamine B assay; format: functional; details: read-out: GI
SF-295 = assay: Antiproliferative activity against human SF-295 cells assessed as cell growth inhibition at 10 uM incubated for 24 hrs by sulforhodamine B assay; format: functional; details: read-out: GI
K562 = assay: Antiproliferative activity against human K562 cells assessed as cell growth inhibition at 10 uM incubated for 24 hrs by sulforhodamine B assay; format: functional; details: read-out: GI
SNB-19 = assay: Antiproliferative activity against human SNB-19 cells assessed as cell growth inhibition at 10 uM incubated for 24 hrs by sulforhodamine B assay; format: functional; details: read-out: GI
SNB-75 = assay: Antiproliferative activity against human SNB-75 cells assessed as cell growth inhibition at 10 uM incubated for 24 hrs by sulforhodamine B assay; format: functional; details: read-out: GI
SK-MEL-5 = assay: Antiproliferative activity against human SK-MEL-5 cells assessed as cell growth inhibition at 10 uM incubated for 24 hrs by sulforhodamine B assay; format: functional; details: read-out: GI
MDA-MB-435 = assay: Antiproliferative activity against human MDA-MB-435 cells assessed as cell growth inhibition at 10 uM incubated for 24 hrs by sulforhodamine B assay; format: functional; details: read-out: GI
[1] = Antiproliferative activity against human […] cells assessed as cell growth inhibition at 10 uM incubated for 24 hrs by sulforhodamine B assay; format: functional; details: read-out: GI
MOLT-4 = assay: Antiproliferative activity against human MOLT-4 cells assessed as cell growth inhibition at 10 uM incubated for 24 hrs by sulforhodamine B assay; format: functional; details: read-out: GI
DU-145 = assay: Antiproliferative activity against human DU-145 cells assessed as cell growth inhibition at 10 uM incubated for 24 hrs by sulforhodamine B assay; format: functional; details: read-out: GI
HL-60 = assay: Antiproliferative activity against human HL-60 cells assessed as cell growth inhibition at 10 uM incubated for 24 hrs by sulforhodamine B assay; format: functional; details: read-out: GI
EKVX = assay: Antiproliferative activity against human EKVX cells assessed as cell growth inhibition at 10 uM incubated for 24 hrs by sulforhodamine B assay; format: functional; details: read-out: GI
MDA-MB-231 = assay: Antiproliferative activity against human MDA-MB-231 cells assessed as cell growth inhibition at 10 uM incubated for 24 hrs by sulforhodamine B assay; format: functional; details: read-out: GI
A549 = assay: Antiproliferative activity against human A549 cells assessed as cell growth inhibition at 10 uM incubated for 24 hrs by sulforhodamine B assay; format: functional; details: read-out: GI
SR = assay: Antiproliferative activity against human SR cells assessed as cell growth inhibition at 10 uM incubated for 24 hrs by sulforhodamine B assay; format: functional; details: read-out: GI
KM12 = assay: Antiproliferative activity against human KM12 cells assessed as cell growth inhibition at 10 uM incubated for 24 hrs by sulforhodamine B assay; format: functional; details: read-out: GI
SF-268 = assay: Antiproliferative activity against human SF-268 cells assessed as cell growth inhibition at 10 uM incubated for 24 hrs by sulforhodamine B assay; format: functional; details: read-out: GI
ACHN = assay: Antiproliferative activity against human ACHN cells assessed as cell growth inhibition at 10 uM incubated for 24 hrs by sulforhodamine B assay; format: functional; details: read-out: GI
HCT-116 = assay: Antiproliferative activity against human HCT-116 cells assessed as cell growth inhibition at 10 uM incubated for 24 hrs by sulforhodamine B assay; format: functional; details: read-out: GI
U-251 = assay: Antiproliferative activity against human U-251 cells assessed as cell growth inhibition at 10 uM incubated for 24 hrs by sulforhodamine B assay; format: functional; details: read-out: GI
IGROV-1 = assay: Antiproliferative activity against human IGROV-1 cells assessed as cell growth inhibition at 10 uM incubated for 24 hrs by sulforhodamine B assay; format: functional; details: read-out: GI
Hs-578T = assay: Antiproliferative activity against human HS-578T cells assessed as cell growth inhibition at 10 uM incubated for 24 hrs by sulforhodamine B assay; format: functional; details: read-out: GI
NCI-H522 = assay: Antiproliferative activity against human NCI-H522 cells assessed as cell growth inhibition at 10 uM incubated for 24 hrs by sulforhodamine B assay; format: functional; details: read-out: GI
A498 = assay: Antiproliferative activity against human A498 cells assessed as cell growth inhibition at 10 uM incubated for 24 hrs by sulforhodamine B assay; format: functional; details: read-out: GI
SW-620 = assay: Antiproliferative activity against human SW-620 cells assessed as cell growth inhibition at 10 uM incubated for 24 hrs by sulforhodamine B assay; format: functional; details: read-out: GI
COLO 205 = assay: Antiproliferative activity against human COLO 205 cells assessed as cell growth inhibition at 10 uM incubated for 24 hrs by sulforhodamine B assay; format: functional; details: read-out: GI
HT-29 = assay: Antiproliferative activity against human HT-29 cells assessed as cell growth inhibition at 10 uM incubated for 24 hrs by sulforhodamine B assay; format: functional; details: read-out: GI
OVCAR-4 = assay: Antiproliferative activity against human OVCAR-4 cells assessed as cell growth inhibition at 10 uM incubated for 24 hrs by sulforhodamine B assay; format: functional; details: read-out: GI
HCT-15 = assay: Antiproliferative activity against human HCT-15 cells assessed as cell growth inhibition at 10 uM incubated for 24 hrs by sulforhodamine B assay; format: functional; details: read-out: GI
RPMI-8226 = assay: Antiproliferative activity against human RPMI-8226 cells assessed as cell growth inhibition at 10 uM incubated for 24 hrs by sulforhodamine B assay; format: functional; details: read-out: GI
LOX IMVI = assay: Antiproliferative activity against human LOX IMVI cells assessed as cell growth inhibition at 10 uM incubated for 24 hrs by sulforhodamine B assay; format: functional; details: read-out: GI
OVCAR-8 = assay: Antiproliferative activity against human OVCAR-8 cells assessed as cell growth inhibition at 10 uM incubated for 24 hrs by sulforhodamine B assay; format: functional; details: read-out: GI
PC-3 = assay: Antiproliferative activity against human PC-3 cells assessed as cell growth inhibition at 10 uM incubated for 24 hrs by sulforhodamine B assay; format: functional; details: read-out: GI

Ki (Carbonic anhydrase 9): 97.4 nM
Structure (SMILES): CC(C)c1nc(SCC(=O)c2ccc(Br)cc2)nc(Nc2cccc(S(N)(=O)=O)c2)c1C#N
inhibition of growth at 10 µM (NCI-H226): 6.88%
inhibition of growth at 10 µM (MCF7): 12.4%
inhibition of growth at 10 µM (CAKI-1): 12.7%
inhibition of growth at 10 µM (UO-31): 20.9%
inhibition of growth at 10 µM (HOP-92): 15%
inhibition of growth at 10 µM (UACC-62): 8.44%
inhibition of growth at 10 µM (OVCAR-3): 6.91%
inhibition of growth at 10 µM (NCI-H23): 5.54%
inhibition of growth at 10 µM (SF-539): 5.74%
inhibition of growth at 10 µM (RXF 393): 8.85%

Ki (Carbonic anhydrase 9): 60.1 nM
Structure (SMILES): COc1ccc(OC)c(-c2nc(SCC(=O)c3ccc(Br)cc3)nc(Nc3cccc(S(N)(=O)=O)c3)c2C#N)c1
inhibition of growth at 10 µM (M14): 6.53%
inhibition of growth at 10 µM (MDA-MB-468): 15.4%
inhibition of growth at 10 µM (SN12C): 18.1%
inhibition of growth at 10 µM (T47D): 23.9%
inhibition of growth at 10 µM (NCI/ADR-RES): 8.77%
inhibition of growth at 10 µM (CCRF-CEM): 20.1%
inhibition of growth at 10 µM (NCI-H460): 22.5%
inhibition of growth at 10 µM (SF-295): 13.3%
inhibition of growth at 10 µM (NCI-H226): 15.2%
inhibition of growth at 10 µM (K562): 29.5%
inhibition of growth at 10 µM (SNB-19): 16.4%
inhibition of growth at 10 µM (MCF7): 28.6%
inhibition of growth at 10 µM (SNB-75): 23.1%
inhibition of growth at 10 µM (SK-MEL-5): 5.18%
inhibition of growth at 10 µM (CAKI-1): 52.1%
inhibition of growth at 10 µM (MDA-MB-435): 15.4%
inhibition of growth at 10 µM (UO-31): 50.2%
inhibition of growth at 10 µM [1]: 14%
inhibition of growth at 10 µM (MOLT-4): 45.3%
inhibition of growth at 10 µM (DU-145): 12.9%
inhibition of growth at 10 µM (HL-60): 10.3%
inhibition of growth at 10 µM (EKVX): 18.4%
inhibition of growth at 10 µM (MDA-MB-231): 23.8%
inhibition of growth at 10 µM (A549): 26.7%
inhibition of growth at 10 µM (SR): 30.5%
inhibition of growth at 10 µM (KM12): 11.8%
inhibition of growth at 10 µM (SF-268): 23.7%
inhibition of growth at 10 µM (UACC-62): 11.6%
inhibition of growth at 10 µM (ACHN): 20.2%
inhibition of growth at 10 µM (HCT-116): 27.9%
inhibition of growth at 10 µM (U-251): 19.1%
inhibition of growth at 10 µM (IGROV-1): 8.33%
inhibition of growth at 10 µM (OVCAR-3): 22.4%
inhibition of growth at 10 µM (Hs-578T): 25.5%
inhibition of growth at 10 µM (NCI-H522): 5.79%
inhibition of growth at 10 µM (A498): 22.5%
inhibition of growth at 10 µM (SW-620): 13.9%
inhibition of growth at 10 µM (NCI-H23): 7.31%
inhibition of growth at 10 µM (COLO 205): 14.6%
inhibition of growth at 10 µM (HT-29): 9.87%
inhibition of growth at 10 µM (SF-539): 16.5%
inhibition of growth at 10 µM (OVCAR-4): 24.1%
inhibition of growth at 10 µM (HCT-15): 23.4%
inhibition of growth at 10 µM (RPMI-8226): 18.5%
inhibition of growth at 10 µM (LOX IMVI): 16.6%
inhibition of growth at 10 µM (RXF 393): 39.8%
inhibition of growth at 10 µM (OVCAR-8): 14.2%
inhibition of growth at 10 µM (PC-3): 34.1%
